# Data reported in US20240109887A1 (Viva Star Biosciences (Suzhou) Co., Ltd., priority 2021, published 2024).
# Tests used:
# [1] = molecular target: T1, KRAS G12D/SOS1 (Homo sapiens, UniProt Q07889); assay: biochemical
# T1 sequence (Q07889 1-1333): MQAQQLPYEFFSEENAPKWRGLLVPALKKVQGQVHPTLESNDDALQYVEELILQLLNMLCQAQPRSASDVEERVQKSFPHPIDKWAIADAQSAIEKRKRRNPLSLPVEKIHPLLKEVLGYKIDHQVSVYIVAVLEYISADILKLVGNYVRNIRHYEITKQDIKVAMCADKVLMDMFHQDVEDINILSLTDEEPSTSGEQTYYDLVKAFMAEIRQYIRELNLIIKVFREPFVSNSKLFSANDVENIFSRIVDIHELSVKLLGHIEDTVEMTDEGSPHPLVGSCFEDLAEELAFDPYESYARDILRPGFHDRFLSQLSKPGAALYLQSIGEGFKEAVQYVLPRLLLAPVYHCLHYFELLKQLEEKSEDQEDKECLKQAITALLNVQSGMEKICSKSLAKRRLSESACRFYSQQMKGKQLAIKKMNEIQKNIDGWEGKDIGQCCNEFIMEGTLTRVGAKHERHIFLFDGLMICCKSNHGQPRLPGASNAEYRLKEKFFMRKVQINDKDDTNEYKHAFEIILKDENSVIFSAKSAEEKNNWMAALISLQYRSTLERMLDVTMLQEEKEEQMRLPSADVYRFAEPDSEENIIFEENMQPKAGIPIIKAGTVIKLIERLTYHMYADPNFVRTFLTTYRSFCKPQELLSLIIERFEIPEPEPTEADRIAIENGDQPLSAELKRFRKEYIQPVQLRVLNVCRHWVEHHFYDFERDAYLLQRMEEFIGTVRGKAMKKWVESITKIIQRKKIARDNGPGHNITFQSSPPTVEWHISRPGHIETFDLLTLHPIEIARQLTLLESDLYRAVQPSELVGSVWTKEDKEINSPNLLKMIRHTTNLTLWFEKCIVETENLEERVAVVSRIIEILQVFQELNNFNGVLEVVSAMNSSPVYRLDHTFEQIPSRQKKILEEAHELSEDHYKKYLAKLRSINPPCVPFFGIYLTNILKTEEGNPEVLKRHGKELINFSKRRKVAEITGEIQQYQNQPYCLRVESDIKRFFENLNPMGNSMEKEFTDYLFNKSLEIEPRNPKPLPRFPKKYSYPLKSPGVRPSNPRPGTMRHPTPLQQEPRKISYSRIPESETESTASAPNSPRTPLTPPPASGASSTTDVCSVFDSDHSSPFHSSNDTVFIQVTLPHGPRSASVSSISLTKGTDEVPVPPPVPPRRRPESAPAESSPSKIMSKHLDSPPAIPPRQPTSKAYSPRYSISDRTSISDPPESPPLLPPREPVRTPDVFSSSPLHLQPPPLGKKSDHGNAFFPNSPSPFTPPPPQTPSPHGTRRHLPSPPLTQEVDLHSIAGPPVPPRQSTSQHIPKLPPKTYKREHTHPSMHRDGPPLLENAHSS
# [2] = molecular target: T2, KRAS-WT/SOS1 (Homo sapiens, UniProt Q07889); assay: biochemical
# T2 sequence (Q07889 1-1333): T1 sequence (Q07889 1-1333)
Structure (SMILES),IC50 [1] [nM],IC50 [2] [nM]
"COc1c(CN(C)C)cc(C(=O)N[C@H](C)c2cccc(C(F)(F)CO)c2)c2n[nH]cc12 [Example 20, N-[(1R)-1-[3-(1,1-difluoro-2-hydroxyethyl)phenyl]ethyl]-5-[(dimethylamino)methyl]-4-methoxy-2H-indazole-7-carboxamide]",100 to 500,100 to 500
"Cc1c[nH]c2c(C(=O)N[C@H](C)c3cccc4c3CCC4(F)F)cn(C3(C)CC3)c(=O)c12 [Example 21, (R)—N-(1-(1,1-difluoro-2,3-dihydro-1H-inden-4-yl)ethyl)-3-methyl-5-(1-methylcyclopropyl)-4-oxo-4,5-dihydro-1H-pyrrolo[3,2-c]pyridine-7-carboxamide]",100 to 500,< 100
"COc1c(-c2cnc[nH]2)cc(C(=O)N[C@H](C)c2cccc3c2CCC3(F)F)c2n[nH]cc12 [Example 22, N-[(1R)-1-(1,1-difluoro-2,3-dihydro-1H-inden-4-yl)ethyl]-5-(1H-imidazol-5-yl)-4-methoxy-2H-indazole-7-carboxamide]",100 to 500,100 to 500
"COc1c(-c2cnc[nH]2)cc(C(=O)N[C@H](C)c2cccc(C(F)(F)CO)c2)c2n[nH]cc12 [Example 23, N-[(1R)-1-[3-(1,1-difluoro-2-hydroxyethyl)phenyl]ethyl]-5-(1H-imidazol-5-yl)-4-methoxy-2H-indazole-7-carboxamide]",100 to 500,100 to 500
"COc1c(C(C)N)cc(C(=O)N[C@H](C)c2cccc3c2CCC3(F)F)c2n[nH]cc12 (stereo partly drawn) [Example 24, 5-(1-aminoethyl)-N—((R)-1-(1,1-difluoro-2,3-dihydro-1H-inden-4-yl)ethyl)-4-methoxy-2H-indazole-7-carboxamide]",100 to 500,100 to 500
"COc1c(O[C@H]2CCOC2)cc(C(=O)N[C@H](C)c2cccc(C(F)(F)F)c2)c2n[nH]cc12 [Example 27, 4-methoxy-5-(((S)-tetrahydrofuran-3-yl)oxy)-N—((R)-1-(3-(trifluoromethyl)phenyl)ethyl)-2H-indazole-7-carboxamide]",100 to 500,100 to 500
"COc1c(O[C@H]2CCOC2)cc(C(=O)N[C@H](C)c2cc(N)cc(C(F)(F)F)c2)c2n[nH]cc12 [Example 28, N-((R)-1-(3-amino-5-(trifluoromethyl)phenyl)ethyl)-4-methoxy-5-(((S)-tetrahydrofuran-3-yl)oxy)-2H-indazole-7-carboxamide]",100 to 500,100 to 500
"COc1c(O[C@H]2CCOC2)cc(C(=O)N[C@H](C)c2cccc3c2CCC3(F)F)c2n[nH]cc12 [Example 29, N-((R)-1-(1,1-difluoro-2,3-dihydro-1H-inden-4-yl)ethyl)-4-methoxy-5-(((S)-tetrahydrofuran-3-yl)oxy)-2H-indazole-7-carboxamide]",100 to 500,< 100
"COc1c(O[C@H]2CCOC2)cc(C(=O)N[C@H](C)c2cccc(C(F)(F)CO)c2)c2n[nH]cc12 [Example 30, N-((R)-1-(3-(1,1-difluoro-2-hydroxyethyl)phenyl)ethyl)-4-methoxy-5-(((S)-tetrahydrofuran-3-yl)oxy)-2H-indazole-7-carboxamide]",100 to 500,100 to 500
"COc1c(N2CCN(C)CC2)cc(C(=O)N[C@H](C)c2cccc(C(F)(F)CO)c2)c2[nH]ncc12 [Example 32, N-[(1R)-1-[3-(1,1-difluoro-2-hydroxyethyl)phenyl]ethyl]-4-methoxy-5-(4-methylpiperazin-1-yl)-1H-indazole-7-carboxamide]",< 100,< 100
COc1c(N2CCNCC2)cc(C(=O)N[C@H](C)c2cccc(C(F)(F)CO)c2)c2[nH]ncc12 [Example 33],< 100,< 100
"COc1c(C2CCN(C)CC2)cc(C(=O)N[C@H](C)c2cccc(C(F)(F)CO)c2)c2[nH]ncc12 [Example 34, N-[(1R)-1-[3-(1,1-difluoro-2-hydroxyethyl)phenyl]ethyl]-4-methoxy-5-(1-methylpiperidin-4-yl)-1H-indazole-7-carboxamide]",< 100,< 100
